pKi: −log10 of the molar value.
Molecular target: human μ-opiate receptor (Homo sapiens, UniProt P35372)
Test: Affinity for the human μ-opiate receptor ([3H]-naloxone displacement, SPA, CHO-K1 membrane preparation)
Assay type: binding
Conditions: for inhibition at 1 µM: read-out: μ-Opioid receptor, % inhibition [1 μM]; for pKi: read-out: μ-Opioid receptor, Ki

Chain of human μ-opiate receptor (P35372 whole entry): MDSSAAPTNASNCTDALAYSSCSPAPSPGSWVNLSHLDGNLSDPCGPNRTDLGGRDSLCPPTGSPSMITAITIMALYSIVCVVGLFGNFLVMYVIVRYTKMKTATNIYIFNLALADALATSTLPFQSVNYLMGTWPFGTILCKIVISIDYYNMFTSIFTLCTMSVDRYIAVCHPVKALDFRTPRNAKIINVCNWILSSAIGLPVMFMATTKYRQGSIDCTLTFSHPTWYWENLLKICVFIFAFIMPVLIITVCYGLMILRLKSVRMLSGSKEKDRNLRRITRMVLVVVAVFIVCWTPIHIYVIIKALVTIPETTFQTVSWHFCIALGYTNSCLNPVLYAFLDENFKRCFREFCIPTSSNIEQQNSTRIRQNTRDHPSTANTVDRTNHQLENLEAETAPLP

SMILES | inhibition at 1 µM | pKi | μ-Opioid receptor, % inhibition [1 μM]
CN(C)C(c1cccc(F)c1)C1CCC(NC(=O)CC(C)(C)C)CC1 (stereo not drawn) [compound 251, N-{4-[dimethylamino-(3-fluoro-phenyl)-methyl]-cyclohexyl}-3,3-dimethyl-butyramide] | 81% | 7.04 | –
CN(C)C(c1ccccc1)C1CCC(NC(=O)c2scc(S(C)(=O)=O)c2Cl)CC1 (stereo not drawn) [compound 252, 3-chloro-4-methanesulfonyl-thiophene-2-carboxylic acid [4-(dimethylamino-phenyl-methyl)-cyclohexyl]-amide] | 81% | 7.70 | –
Cc1c(S(=O)(=O)c2ccc(Cl)cc2)csc1C(=O)NC1CCC(C(c2ccccc2)N(C)C)CC1 (stereo not drawn) [compound 253, 4-(4-chloro-benzenesulfonyl)-3-methyl-thiophene-2-carboxylic acid [4-(dimethylamino-phenyl-methyl)-cyclohexyl]-amide] | – | 7.10 | 80%
CN(C)C(c1ccccc1)C1CCC(NC(=O)COCc2ccccc2)CC1 (stereo not drawn) [compound 254, 2-benzyloxy-N-[4-(dimethylamino-phenyl-methyl)-cyclohexyl]-acetamide] | 80% | 7.25 | –
CN(C)C(c1ccccc1)C1CCC(NC(=O)Cc2cccs2)CC1 (stereo not drawn) [compound 255, N-[4-(dimethylamino-phenyl-methyl)-cyclohexyl]-2-thiophen-2-yl-acetamide] | 80% | 7.34 | –
Cc1nc(-c2ccccc2)sc1C(=O)NC1CCC(C(c2cccc(F)c2)N(C)C)CC1 (stereo not drawn) [compound 256, 4-methyl-2-phenyl-thiazole-5-carboxylic acid {4-[dimethylamino-(3-fluoro-phenyl)-methyl]-cyclohexyl}-amide] | 80% | 7.10 | –
CN(C)C(c1cccs1)C1CCC(NC(=O)c2cccnc2Oc2ccc(Cl)cc2)CC1 (stereo not drawn) [compound 257, 2-(4-chloro-phenoxy)-N-[4-(dimethylamino-thiophen-2-yl-methyl)-cyclohexyl]-nicotinamide] | 79% | 7.09 | –
CN(C)C(CCc1ccccc1)C1CCC(NC(=O)c2ccc(F)cc2)CC1 (stereo not drawn) [compound 258, N-[4-(1-dimethylamino-3-phenyl-propyl)-cyclohexyl]-4-fluoro-benzamide] | 79% | 7.17 | –
CN(C)C(c1ccccc1)C1CCC(NC(=O)c2cncc(Br)c2)CC1 (stereo not drawn) [compound 259, 5-bromo-N-[4-(dimethylamino-phenyl-methyl)-cyclohexyl]-nicotinamide] | – | 7.21 | 79%
CCn1nc(C)c(Br)c1C(=O)NC1CCC(C(c2cccs2)N(C)C)CC1 (stereo not drawn) [compound 260, 4-bromo-2-ethyl-5-methyl-2H-pyrazole-3-carboxylic acid [4-(dimethylamino-thiophen-2-yl-methyl)-cyclohexyl]-amide] | 78% | – | –
CN(C)C(c1ccccc1)C1CCC(NC(=O)c2cccc(C#N)c2)CC1 (stereo not drawn) [compound 261, 3-cyano-N-[4-(dimethylamino-phenyl-methyl)-cyclohexyl]-benzamide] | 78% | 6.89 | –
CN(C)C(c1ccc(F)cc1)C1CCC(NC(=O)c2ccc(F)cc2)CC1 (stereo not drawn) [compound 262, N-{4-[dimethylamino-(4-fluoro-phenyl)-methyl]-cyclohexyl}-4-fluoro-benzamide] | 78% | 7.02 | –
CN(C)C(c1ccc(F)cc1)C1CCC(NC(=O)c2cccc(Br)c2)CC1 (stereo not drawn) [compound 263, 3-bromo-N-{4-[dimethylamino-(4-fluoro-phenyl)-methyl]-cyclohexyl}-benzamide] | 78% | 7.55 | –
CN(C)C(c1cccc(F)c1)C1CCC(NC(=O)c2csc(-c3ccccc3)n2)CC1 (stereo not drawn) [compound 264, 2-phenyl-thiazole-4-carboxylic acid {4-[dimethylamino-(3-fluoro-phenyl)-methyl]-cyclohexyl}-amide] | 78% | 6.96 | –
